Experimental data as given in PubChem BioAssay AID1259408 (Genetic Toxicology Data Bank (GENE-TOX), 2018).
Activity calls are given as the source filed them. No rule for the calls is given here.

Test system: GENE-TOX genotoxicity assays, various organisms and cells
Assay: GENE-TOX mutagenicity studies
Details: for call: Assay Type: In vivo carcinogenicity studies
[1] = Species/Cell Type: Chinese hamster lung (V79) cells, Assay Type: Forward gene mutation at the HPRT or ouabain locus, Assay Code: V79+, Evaluation Type: Evaluation A (Pre-1980)
[2] = Species/Cell Type: Neurospora crassa, Assay Type: Forward gene mutation, Assay Code: NEF+, Evaluation Type: Evaluation A (Pre-1980)
[3] = Species/Cell Type: Rodents, Sex: Male, Assay Type: Dominant lethal test, Assay Code: DLT-, Evaluation Type: Evaluation A (Pre-1980)
[4] = Species/Cell Type: Mammalian polychromatic erythrocytes, Assay Type: Micronucleus test, chromosome aberrations, Assay Code: MNTT, Evaluation Type: Evaluation B (Post-1980)
[5] = Species/Cell Type: Salmonella typhimurium (one or more of the five standard strains: TA98, TA100, TA1535, TA1537, and TA1538), Assay Type: Histidine reverse gene mutation, Ames assay, Assay Code: SALT, Evaluation Type: Evaluation A (Pre-1980)
[6] = Species/Cell Type: Human, Assay Type: Sister-chromatid exchange (SCE) in vitro, Assay Code: SC1T, Evaluation Type: Evaluation B (Post-1980)

CCN(CC)N=O
mutagenic call [1]: active; positive
mutagenic call (Species/Cell Type: Chinese hamster ovary (CHO) cells, Assay Type: Forward gene mutation at the HPRT locus, Assay Code: CHO+*, Activation: With metabolic activation, Evaluation Type: Evaluation B (Post-1980)): active; positive
mutagenic call (Species/Cell Type: Drosophila melanogaster, Assay Type: Sex-linked recessive lethal gene mutation, Assay Code: SRL+, Evaluation Type: Evaluation A (Pre-1980)): active; positive
mutagenic call (Species/Cell Type: Drosophila melanogaster, Sex: Male, Assay Type: Heritable translocation test, chromosome aberrations, Assay Code: DHTT, Evaluation Type: Evaluation A (Pre-1980)): no conclusion
mutagenic call (Species/Cell Type: Escherichia coli polA (W3110 vs P3478), Assay Type: Rec-assay, DNA effects (bacterial DNA repair), Assay Code: RE2+, Evaluation Type: Evaluation A (Pre-1980)): active; positive
mutagenic call (Species/Cell Type: Escherichia coli polA (W3119 vs P3478), Assay Type: Rec-assay, DNA effects (bacterial DNA repair), Assay Code: RE1-, Evaluation Type: Evaluation A (Pre-1980)): inactive; negative
mutagenic call (Species/Cell Type: Fischer rat embryo (RLV/1706) cells, Assay Type: Cell transformation, viral enhanced, Assay Code: CTR+, Evaluation Type: Evaluation A (Pre-1980)): active; positive
mutagenic call (Species/Cell Type: Human diploid fibroblasts, Assay Type: Unscheduled DNA synthesis (UDS) in vitro, DNA effects, Assay Code: UDHT, Evaluation Type: Evaluation A (Pre-1980)): no conclusion
mutagenic call (Species/Cell Type: Human lymphocytes, Assay Type: Sister-chromatid exchange (SCE) in vitro, Assay Code: SCL+D*, Activation: With metabolic activation, Dose Response: With dose response, Evaluation Type: Evaluation B (Post-1980)): active; positive
mutagenic call (Species/Cell Type: Human lymphocytes, Assay Type: Sister-chromatid exchange (SCE) in vitro, Assay Code: SCL-, Evaluation Type: Evaluation A (Pre-1980)): inactive; negative
mutagenic call (Species/Cell Type: Human, Assay Type: Sister-chromatid exchange (SCE) in vitro, Assay Code: SC1+D*, Activation: With metabolic activation, Dose Response: With dose response, Evaluation Type: Evaluation B (Post-1980)): active; positive
mutagenic call (Species/Cell Type: Human, Assay Type: Sister-chromatid exchange (SCE) in vitro, Assay Code: SC1-, Evaluation Type: Evaluation A (Pre-1980)): inactive; negative
mutagenic call (Species/Cell Type: Mammalian polychromatic erythrocytes, Assay Type: Micronucleus test, chromosome aberrations, Assay Code: MNTT, Evaluation Type: Evaluation A (Pre-1980)): no conclusion
mutagenic call (Species/Cell Type: Mouse germ cells, Sex: Male, Assay Type: Unscheduled DNA synthesis (UDS) in vivo, DNA effects, Assay Code: UDT-, Evaluation Type: Evaluation A (Pre-1980)): inactive; negative
mutagenic call (Species/Cell Type: Mouse lymphoma (L5178Y) cells, Assay Type: Forward gene mutation at the thymidine kinase (TK) locus, chromosome aberrations, Assay Code: L51+*, Activation: With metabolic activation, Evaluation Type: Evaluation A (Pre-1980)): active; positive
mutagenic call (Species/Cell Type: Mouse, Sex: Female, Assay Type: Spot test, gene mutation, Assay Code: MST-, Evaluation Type: Evaluation A (Pre-1980)): inactive; negative
mutagenic call (Species/Cell Type: Mouse, Sex: Male, Assay Type: Specific locus test, gene mutation, Assay Code: SLT-, Evaluation Type: Evaluation A (Pre-1980)): inactive; negative
mutagenic call [2]: active; positive
mutagenic call (Species/Cell Type: Neurospora crassa, Assay Type: Reverse gene mutation, Assay Code: NER+, Evaluation Type: Evaluation A (Pre-1980)): active; positive
mutagenic call (Species/Cell Type: Nonhuman, Assay Type: Chromosome aberrations in vitro, Assay Code: CY&+*, Activation: With metabolic activation, Evaluation Type: Evaluation A (Pre-1980)): active; positive
call (Species/Cell Type: Nonhuman, Assay Code: CCG+, Evaluation Type: Evaluation A (Pre-1980)): active; positive
mutagenic call (Species/Cell Type: Nonhuman, Assay Type: Sister-chromatid exchange (SCE) in vitro, Assay Code: SC2+D, Dose Response: With dose response, Evaluation Type: Evaluation A (Pre-1980)): active; positive
mutagenic call (Species/Cell Type: Nonhuman, Assay Type: Sister-chromatid exchange (SCE) in vivo, Assay Code: SC3+, Evaluation Type: Evaluation B (Post-1980)): active; positive
mutagenic call (Species/Cell Type: Nonhuman, Assay Type: Sister-chromatid exchange (SCE) in vivo, Assay Code: SC3+D, Dose Response: With dose response, Evaluation Type: Evaluation A (Pre-1980)): active; positive
mutagenic call (Species/Cell Type: Rat primary hepatocytes, Assay Type: Unscheduled DNA synthesis (UDS) in vitro, DNA effects, Assay Code: UDP+, Evaluation Type: Evaluation A (Pre-1980)): active; positive
mutagenic call [3]: inactive; negative
mutagenic call (Species/Cell Type: Saccharomyces cerevisiae, Assay Type: Forward gene mutation, Assay Code: YEF+*, Activation: With metabolic activation, Evaluation Type: Evaluation A (Pre-1980)): active; positive
mutagenic call (Species/Cell Type: Saccharomyces cerevisiae, Assay Type: Mitotic recombination or gene conversion, Assay Code: YEH+, Evaluation Type: Evaluation A (Pre-1980)): active; positive
mutagenic call (Species/Cell Type: Salmonella typhimurium (one or more of the five standard strains: TA98, TA100, TA1535, TA1537, and TA1538), Assay Type: Histidine reverse gene mutation, Ames assay, Assay Code: SAL+*, Activation: With metabolic activation, Evaluation Type: Evaluation A (Pre-1980)): active; positive
mutagenic call (Species/Cell Type: Salmonella typhimurium, Escherichia coli, Serratia marcesens, Chinese hamster lung (V79) cells, Assay Type: Forward and reverse gene mutation, host-mediated assay, Assay Code: HM1+, Evaluation Type: Evaluation A (Pre-1980)): active; positive
mutagenic call (Species/Cell Type: Syrian hamster embryo (SHE) cells, Assay Type: Cell transformation, clonal assay, Assay Code: CTC+*, Activation: With metabolic activation, Evaluation Type: Evaluation A (Pre-1980)): active; positive

C#CC(C)N(C)C(=O)Nc1ccc(Cl)cc1 (stereo unspecified)
mutagenic call (Species/Cell Type: Saccharomyces cerevisiae, Assay Type: Mitotic recombination or gene conversion, Assay Code: YEC-, Evaluation Type: Evaluation A (Pre-1980)): inactive; negative

COP(=S)(OC)Oc1ccc([N+](=O)[O-])c(C)c1
mutagenic call (Species/Cell Type: Drosophila melanogaster, Assay Type: Sex-linked recessive lethal gene mutation, Assay Code: SRLT, Evaluation Type: Evaluation A (Pre-1980)): no conclusion
mutagenic call (Species/Cell Type: Human, Assay Type: Sister-chromatid exchange (SCE) in vitro, Assay Code: SC1+, Evaluation Type: Evaluation B (Post-1980)): active; positive
mutagenic call [4]: no conclusion
mutagenic call [3]: inactive; negative
mutagenic call (Species/Cell Type: Salmonella typhimurium, Assay Type: Forward and reverse gene mutation, host-mediated assay, Assay Code: HMA-, Evaluation Type: Evaluation A (Pre-1980)): inactive; negative

Clc1ccccc1
mutagenic call (Species/Cell Type: Mammalian polychromatic erythrocytes, Assay Type: Micronucleus test, chromosome aberrations, Assay Code: MNT+, Evaluation Type: Evaluation B (Post-1980)): active; positive

COc1ccc2nc3cc(Cl)ccc3c(NCCCNCCO)c2n1
mutagenic call (Species/Cell Type: Chinese hamster ovary (CHO) cells, Assay Type: Forward gene mutation at the HPRT locus, Assay Code: CHOT, Evaluation Type: Evaluation B (Post-1980)): no conclusion

Cc1ccc2ccc3c4c(ccc3c2c1)C(=O)CC4
mutagenic call [5]: no conclusion

Cn1cnc([N+](=O)[O-])c1Sc1ncnc2nc[nH]c12
mutagenic call (Species/Cell Type: Drosophila melanogaster, Assay Type: Aneuploidy, partial sex chromosome loss, chromosome aberrations, Assay Code: DAP+M, Evaluation Type: Evaluation A (Pre-1980)): active; positive
mutagenic call (Species/Cell Type: Drosophila melanogaster, Assay Type: Aneuploidy, sex chromosome gain, chromosome aberrations, Assay Code: DAG+M, Evaluation Type: Evaluation A (Pre-1980)): active; positive
mutagenic call (Species/Cell Type: Drosophila melanogaster, Assay Type: Aneuploidy, whole sex chromosome loss, chromosome aberrations, Assay Code: DACT, Evaluation Type: Evaluation A (Pre-1980)): no conclusion
mutagenic call (Species/Cell Type: Human lymphocytes, Assay Type: Sister-chromatid exchange (SCE) in vitro, Assay Code: SCLT, Evaluation Type: Evaluation B (Post-1980)): no conclusion
mutagenic call (Species/Cell Type: Human lymphocytes, Assay Type: Sister-chromatid exchange (SCE) in vivo, Assay Code: SCY+, Evaluation Type: Evaluation B (Post-1980)): active; positive
mutagenic call [6]: no conclusion
mutagenic call (Species/Cell Type: Mammalian polychromatic erythrocytes, Assay Type: Micronucleus test, chromosome aberrations, Assay Code: MNT+, Evaluation Type: Evaluation A (Pre-1980)): active; positive
mutagenic call (Species/Cell Type: Mouse, Sex: Male, Assay Type: Sperm morphology, Assay Code: SPI+, Evaluation Type: Evaluation A (Pre-1980)): active; positive
mutagenic call (Species/Cell Type: Neurospora crassa, Assay Type: Forward and reverse gene mutation, lethal mutation, host-mediated assay, Assay Code: HMD+, Evaluation Type: Evaluation A (Pre-1980)): active; positive
mutagenic call [2]: active; positive
call (Species/Cell Type: Nonhuman, Assay Code: CCG+L, Evaluation Type: Evaluation A (Pre-1980)): active; positive
mutagenic call (Species/Cell Type: Nonhuman, Assay Type: Sister-chromatid exchange (SCE) in vivo, Assay Code: SC3-, Evaluation Type: Evaluation B (Post-1980)): inactive; negative
mutagenic call (Species/Cell Type: Rodents, Sex: Male, Assay Type: Dominant lethal test, Assay Code: DLTT, Evaluation Type: Evaluation A (Pre-1980)): no conclusion
mutagenic call (Species/Cell Type: Salmonella typhimurium (one or more of the five standard strains: TA98, TA100, TA1535, TA1537, and TA1538), Assay Type: Histidine reverse gene mutation, Ames assay, Assay Code: SAL+, Evaluation Type: Evaluation A (Pre-1980)): active; positive

NC(=O)CCl
mutagenic call (Species/Cell Type: Syrian hamster embryo (SA7/SHE) cells, Assay Type: Cell transformation, viral enhanced, Assay Code: CT7+, Evaluation Type: Evaluation A (Pre-1980)): active; positive

O=O
mutagenic call [1]: active; positive

CCCCC/C=C\C/C=C\C/C=C\CCCCC(=O)O
mutagenic call [4]: no conclusion

Cc1cc2ccccc2c2ccc3ccc(F)cc3c12
mutagenic call [5]: no conclusion

CC(C)C[C@@H](N)[C@H](O)C(=O)N[C@H](C(=O)N[C@H](C(=O)N[C@@H](CC(=O)O)C(=O)O)C(C)C)C(C)C
mutagenic call [6]: no conclusion

O=[Si]=O
mutagenic call (Species/Cell Type: Nonhuman, Assay Type: Sister-chromatid exchange (SCE) in vitro, Assay Code: SC2T, Evaluation Type: Evaluation B (Post-1980)): no conclusion

CCCCCc1cc(OC(=O)CCCN2CCOCC2)c2c(c1)OC(C)(C)[C@@H]1CCC(C)=C[C@@H]21
mutagenic call (Species/Cell Type: Human diploid fibroblasts, Assay Type: Unscheduled DNA synthesis (UDS) in vitro, DNA effects, Assay Code: UDH-, Evaluation Type: Evaluation A (Pre-1980)): inactive; negative
